In one data set the target is T1, CYP2D6 (Homo sapiens, UniProt P10635).
T1 construct: tissue BD-Gentest 452117; host or cells: human liver microsomes
In words: CYP inhibition assay in human liver microsome. Type of data set: in vitro ADME. Conditions: human liver microsomes, probe dextromethorphan, 10µM test compound, dextromethorphan substrate, <0: not or weak inhibitor, read-out: CYP 2D6 inhibition %@10µM. As to the method:
This is a high throughput screening assay used for assessment of reversible inhibition of CYP2D6 activity of test compounds in human liver microsome (HLM) in early discovery stage. Table 4. Chemicals and materials used in the CYP inhibition assay
10 mM DMSO stock solutions of test compounds were diluted in DMSO to generate 2 mM intermediate stock solution. 250 nL of intermediate stock solution were transferred in duplicate into 3 separate 384 well microtitre plates (assay-ready plates). A mixture of HLM and each substrate was made up. 45 µL of HLM substrate mix was then transferred to each well of an assay ready plate and mixed. The negative (solvent) and positive control (standard inhibitor for CYP 2D6) were included in each assay ready plate. The assay ready plate was warmed to 37 °C in an incubator over 10 minutes. 5 µL pre-warmed NADPH regenerating system was added to each incubation well to start the reaction. Final incubation volume was 50 µL. The assay plate then was placed back in the 37 °C incubator. After 10-minute incubation, incubates were quenched by addition of 50 µL 100% acetonitrile containing internal standards (20 ng/mL D3-Dextrorphan). The supernatants were collected for RapidFire/MS/MS analysis.
RapidFire online solid phase extraction/sample injection system (Agilent) coupled with API4000 triple quadrupole mass spectrometer (AB Sciex) were used for sample analysis. The mobile phase composed of acetonitrile and water supplemented with 0.1% formic acid. A C4 solid phase extraction cartridge is used for sample separation. MS detection is achieved in positive ion MRM mode.
Peak areas for substrate, metabolite and internal standard are determined using the RapidFire integrator software (version 3.6.12009.12296). Peak area ratios (PAR) of metabolite and internal standard (stable-labelled metabolite) are then calculated. The measurement window for each experiment is then defined: • PAR (0% activity)= average PAR for all incubations containing concentrated inhibitor; • Par (100% activity)= average PAR for all incubations containing no inhibitor (DMSO controls); • % Activity (test inhibitor) • =[PAR(test inhibitor)-PAR(0% activity)]/[PAR(100% activity)-PAR(0% activity)]; • % Inhibition (test inhibitor)=100-% Activity (test inhibitor).

In the next data set the target is T2, hTLR9 (Homo sapiens, UniProt Q9NR96).
T2 sequence (Q9NR96 26-1032): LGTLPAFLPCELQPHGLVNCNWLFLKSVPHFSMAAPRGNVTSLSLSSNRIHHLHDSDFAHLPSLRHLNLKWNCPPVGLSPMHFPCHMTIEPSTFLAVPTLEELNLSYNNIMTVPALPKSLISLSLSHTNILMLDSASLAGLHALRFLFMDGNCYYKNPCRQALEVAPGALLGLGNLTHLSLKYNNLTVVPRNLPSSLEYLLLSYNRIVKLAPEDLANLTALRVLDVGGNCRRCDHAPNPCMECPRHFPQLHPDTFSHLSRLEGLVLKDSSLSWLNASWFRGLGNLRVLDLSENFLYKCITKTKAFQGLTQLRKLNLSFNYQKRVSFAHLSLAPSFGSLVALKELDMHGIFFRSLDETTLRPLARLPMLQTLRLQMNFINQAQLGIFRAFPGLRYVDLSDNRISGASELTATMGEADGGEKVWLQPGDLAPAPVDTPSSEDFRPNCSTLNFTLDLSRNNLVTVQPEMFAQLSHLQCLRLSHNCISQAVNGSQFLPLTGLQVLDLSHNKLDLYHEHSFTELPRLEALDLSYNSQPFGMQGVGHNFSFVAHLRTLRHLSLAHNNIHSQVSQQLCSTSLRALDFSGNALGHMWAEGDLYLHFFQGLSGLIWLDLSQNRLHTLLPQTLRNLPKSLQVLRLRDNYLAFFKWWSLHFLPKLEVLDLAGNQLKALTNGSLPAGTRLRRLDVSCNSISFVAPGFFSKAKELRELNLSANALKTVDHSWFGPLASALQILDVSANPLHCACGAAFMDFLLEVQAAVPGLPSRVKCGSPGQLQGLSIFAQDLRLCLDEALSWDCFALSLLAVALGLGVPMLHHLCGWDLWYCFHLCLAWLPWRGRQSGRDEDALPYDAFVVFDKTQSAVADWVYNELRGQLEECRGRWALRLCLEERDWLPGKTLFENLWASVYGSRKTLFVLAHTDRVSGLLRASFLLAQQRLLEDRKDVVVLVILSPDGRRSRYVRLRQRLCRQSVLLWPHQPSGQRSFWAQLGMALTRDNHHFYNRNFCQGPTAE
In words: HEK293-Blue-hTLR-9 cells assay (SEAP reporter, ODN2006 stimulation). Also on record: host or cells: HEK293 (HEK-Blue). Conditions: HEK293-Blue-hTLR9 cells, ODN2006, 20 hrs; read-out: HEK/hTLR9 IC50. Type of data set: cell-based. An excerpt: A stable HEK293-Blue-hTLR-9 cell line was purchased from InvivoGen (Cat.#: hkb-htlr9, San Diego, California, USA). These cells were originally designed for studying the stimulation of human TLR9 by monitoring the activation of NF-κB. A SEAP (secreted embryonic alkaline phosphatase) reporter gene was placed under the control of the IFN-β minimal promoter fused to five NF-κB and AP-1-binding sites. The SEAP was induced by activating NF-κB and AP-1 via stimulating HEK-Blue hTLR9 cells with TLR9 ligands. Therefore, the reporter expression was declined by TLR9 antagonist under the stimulation of a ligand, such as ODN2006 (Cat.#: tlrl-2006-1, Invivogen, San Diego, California, USA), for incubation of 20 hrs. The cell culture supernatant SEAP reporter activity was determined using QUANTI-Blue™ kit (Cat.#: rep-qb 1, Invivogen, San Diego, California, USA) at a wavelength of 640 nm, a detection medium that turns purple or blue in the presence of alkaline phosphatase.
HEK293-Blue-hTLR9 cells were incubated at a density of 250,000-450,000 cells/mL in a volume of 170 µL in a 96-well plate in Dulbecco's Modified Eagle's medium (DMEM) containing 4.5 g/L glucose, 50 U/mL penicillin, […], […], 2 mM L-glutamine, 10% (v/v) heat-inactivated fetal bovine serum with addition of 20 µL test compound in a serial dilution in the presence of final DMSO at 1% and 10 µL of 20uM ODN2006 in above DMEM, perform incubation under 37 °C in a CO2 incubator for 20 hrs. Then 20 µL of the supernatant from each well was incubated with 180 µL Quanti-blue substrate solution at 37 °C for 2 hrs and the absorbance was read at 620-655 nm using a spectrophotometer. The signaling pathway that TLR9 activation leads to downstream NF-κB activation has been widely accepted, and therefore similar reporter assay was modified for evaluating TLR9 antagonist.

For 15 molecules, inhibition and IC50 results are on record in EP3807270B1, “NOVEL HETEROARYL HETEROCYCLYL COMPOUNDS FOR THE TREATMENT OF AUTOIMMUNE DISEASE” (F. Hoffmann-La Roche AG, priority 2018, dated 2019).

T1 sequence (P10635 whole entry): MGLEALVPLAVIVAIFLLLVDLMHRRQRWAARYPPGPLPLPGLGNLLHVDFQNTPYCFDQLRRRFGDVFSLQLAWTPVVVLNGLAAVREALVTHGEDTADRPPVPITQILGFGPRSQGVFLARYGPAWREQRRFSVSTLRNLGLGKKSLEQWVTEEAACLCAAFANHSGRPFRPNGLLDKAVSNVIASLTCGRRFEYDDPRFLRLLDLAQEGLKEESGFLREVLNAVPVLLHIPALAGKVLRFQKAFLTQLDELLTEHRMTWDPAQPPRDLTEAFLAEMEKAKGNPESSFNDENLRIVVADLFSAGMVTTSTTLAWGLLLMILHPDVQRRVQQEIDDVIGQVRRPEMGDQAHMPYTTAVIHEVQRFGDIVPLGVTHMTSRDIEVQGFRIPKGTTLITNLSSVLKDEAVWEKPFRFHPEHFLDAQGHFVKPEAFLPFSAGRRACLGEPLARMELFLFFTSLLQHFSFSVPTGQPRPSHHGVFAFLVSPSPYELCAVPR

Consider `C[C@@H]1CN(c2ccc(C#N)c3ncccc23)C[C@H](CN2CCN(c3cc4c(cn3)[C@@H](C)NCC4)CC2)O1` (single isomer, unassigned) [Example 73], for which the inhibition at 10 min, 10 µM on CYP2D6 worked out at 6%. Besides, the IC50 at hTLR9 worked out at 0.082 µM.

For `CC1NCc2ncc(N3CCN(C[C@H]4CN(c5ccc(C#N)c6ncccc56)C[C@@H](C)O4)CC3)cc21` (stereo partly drawn) [Example 41, 5-[(2R,6S)-2-methyl-6-[[4-(5-methyl-6,7-dihydro-5H-pyrrolo[3,4-b]pyridin-3-yl)piperazin-1-yl]methyl]morpholin-4-yl]quinoline-8-carbonitrile], at CYP2D6, the inhibition at 10 min, 10 µM was -2%. In addition, on hTLR9, the IC50 came out at 0.06 µM.

Turning to `C[C@@H]1CN(c2ccc(C#N)c3ncccc23)C[C@H](CN2CC3(C2)CN(c2cc4c(cn2)CCNC4)CCO3)O1` [Example 48, 5-[(2R,6S)-2-methyl-6-[[8-(5,6,7,8-tetrahydro-2,6-naphthyridin-3-yl)-5-oxa-2,8-diazaspiro[3.5]nonan-2-yl]methyl]morpholin-4-yl]quinoline-8-carbonitrile], the inhibition at 10 min, 10 µM on CYP2D6 was -12%. In addition, the IC50 on hTLR9 came out at 0.056 µM.

With `C[C@@H]1CN(c2ccc(C#N)c3ncccc23)C[C@H](CN2CCN(c3cnc4c(c3)CN[C@@H]4C)CC2)O1` (single isomer, unassigned) [Example 68], on CYP2D6, the inhibition at 10 min, 10 µM amounted to 6%. Besides, the IC50 at hTLR9 was 0.084 µM.

Turning to `C[C@@H]1Cc2cc(N3CCN(C[C@H]4CN(c5ccc(C#N)c6nccnc56)C[C@@H](C)O4)CC3)ncc2CN1` (single isomer, unassigned) [Example 83], the inhibition at 10 min, 10 µM on CYP2D6 is -8%. On hTLR9, the IC50 stood at 0.124 µM.

`C[C@@H]1CN(c2ccc(C#N)c3nccnc23)C[C@H](CN2CCN(c3cc4c(cn3)CCNC4)CC2)O1` [Example 80, 8-[(2R,6S)-2-methyl-6-[[4-(5,6,7,8-tetrahydro-2,6-naphthyridin-3-yl)piperazin-1-yl]methyl]morpholin-4-yl]quinoxaline-5-carbonitrile]: the inhibition at 10 min, 10 µM at CYP2D6 stood at 7%. At hTLR9, the IC50 turned out to be 0.1 µM.

Take `C[C@@H]1CN(c2ccc(C#N)c3ncsc23)C[C@H](CN2CCN(c3cnc4c(c3)CNC4)CC2)O1` [Example 8, 7-[(2S,6R)-2-[[4-(6,7-dihydro-5H-pyrrolo[3,4-b]pyridin-3-yl)piperazin-1-yl]methyl]-6-methyl-morpholin-4-yl]-1,3-benzothiazole-4-carbonitrile]: the inhibition at 10 min, 10 µM on CYP2D6 stood at 13%. Further, on hTLR9, the IC50 was 0.048 µM.

`C[C@@H]1CN(c2ccc(C#N)c3ncccc23)C[C@H](CN2CC3(C2)CN(c2cnc4c(c2)CNCC4)CCO3)O1` [Example 47, 5-[(2R,6S)-2-methyl-6-[[8-(5,6,7,8-tetrahydro-1,6-naphthyridin-3-yl)-5-oxa-2,8-diazaspiro[3.5]nonan-2-yl]methyl]morpholin-4-yl]quinoline-8-carbonitrile]: on CYP2D6, the inhibition at 10 min, 10 µM is -21.5%. Also, the IC50 on hTLR9 was found to be 0.072 µM.

On to `C[C@@H]1CN(c2ccc(C#N)c3nccnc23)C[C@H](CN2CCN(c3cc4c(cn3)C[C@H](C)NC4)CC2)O1` (single isomer, unassigned) [Example 81], for which the inhibition at 10 min, 10 µM at CYP2D6 is 3.5%. The IC50 at hTLR9 worked out at 0.096 µM.

Regarding `C[C@@H]1CN(c2ccc(C#N)c3ncccc23)C[C@H](CN2CCN(c3cnc4c(c3)CNCC4)C(C)(C)C2)O1` [Example 56, 5-[(2S,6R)-2-[[3,3-dimethyl-4-(5,6,7,8-tetrahydro-1,6-naphthyridin-3-yl)piperazin-1-yl]methyl]-6-methyl-morpholin-4-yl]quinoline-8-carbonitrile], the inhibition at 10 min, 10 µM at CYP2D6 was -2.5%. For the same molecule, at hTLR9, the IC50 came out at 0.168 µM.

Consider `C[C@@H]1CN(c2ccc(C#N)c3ncccc23)C[C@H](CN2C[C@H]3CN(c4ccc5c(n4)CCNC5)CC[C@H]32)O1` (single isomer, unassigned) [Example 55], for which the inhibition at 10 min, 10 µM on CYP2D6 came out at 10.5%. Further, the IC50 at hTLR9 is < 0.032 µM.

On to `C[C@@H]1CN(c2ccc(C#N)c3ncccc23)C[C@H](CN2C[C@@H]3[C@@H](C2)OCCN3c2cnc3c(c2)CCNC3)O1` [Example 52, 5-[(2S,6R)-2-[[(4aR,7aR)-4-(5,6,7,8-tetrahydro-1,7-naphthyridin-3-yl)-2,3,4a,5,7,7a-hexahydropyrrolo[3,4-b][1,4]oxazin-6-yl]methyl]-6-methylmorpholin-4-yl]quinoline-8-carbonitrile], for which the inhibition at 10 min, 10 µM on CYP2D6 came out at 5%. Moreover, the IC50 on hTLR9 came out at 0.044 µM.

With `C[C@@H]1CN(c2ccc(C#N)c3ncccc23)C[C@H](CN2CC3(C2)CN(c2cnc4c(n2)CCNC4)CCO3)O1` [Example 50, 5-[(2R,6S)-2-methyl-6-[[8-(5,6,7,8-tetrahydropyrido[3,4-b]pyrazin-2-yl)-5-oxa-2,8-diazaspiro [3.5]nonan-2-yl]methyl]morpholin-4-yl] quinoline-8-carbonitrile], the inhibition at 10 min, 10 µM on CYP2D6 was 10.5%. Besides, at hTLR9, the IC50 is 0.069 µM.

Turning to `C[C@@H]1CN(c2ccc(C#N)c3ncccc23)C[C@H](CN2CCN(c3ccc4c(c3)C(O)CNC4)CC2)O1` (stereo partly drawn) [Example 22, 5-[(2S,6R)-2-[[4-(4-hydroxy-1,2,3,4-tetrahydroisoquinolin-6-yl)piperazin-1-yl]methyl]-6-methyl-morpholin-4-yl]quinoline-8-carbonitrile], the inhibition at 10 min, 10 µM at CYP2D6 was found to be 6%. At hTLR9, the IC50 was found to be 0.045 µM.

Consider `C[C@@H]1CN(c2ccc(C#N)c3ncccc23)C[C@H](CN2CCN(c3cc4c(cn3)CCN[C@@H]4C)CC2)O1` (single isomer, unassigned) [Example 74], for which the inhibition at 10 min, 10 µM at CYP2D6 was 6%. Also, the IC50 at hTLR9 came to 0.089 µM.
